Experimental data as given in patent US10770169B2, “Method of providing a treatment to a subject based on a dynamic pathway map” (THE REGENTS OF THE UNIVERSITY OF CALIFORNIA, priority 2010, dated 2020).
Where two headings read alike, the source gives them in different places.

Test system: panel of 55 breast cancer cell lines
Experiment: Cell growth inhibition assay (Cell Titer Glo, 72 h, 9 doses; GI50, TGI, LC50)
Assay type: cell-based, human
Settings: Homo sapiens, read-out: GI50 (converted)
[1] = 600MPE cell line, censored GI50 values
[2] = AU565, AU565 cell line, censored GI50 values
[3] = BT-474, BT474 cell line, censored GI50 values
[4] = BT-483, BT483 cell line, censored GI50 values
[5] = CAMA-1, CAMA1 cell line, censored GI50 values
[6] = HCC38, HCC38 cell line, censored GI50 values
[7] = HCC70, HCC70 cell line, censored GI50 values
[8] = HCC202, HCC202 cell line, censored GI50 values
[9] = HCC1143, HCC1143 cell line, censored GI50 values
[10] = HCC1187, HCC1187 cell line, censored GI50 values
[11] = HCC1395, HCC1395 cell line, censored GI50 values
[12] = HCC1419, HCC1419 cell line, censored GI50 values
[13] = HCC1428, HCC1428 cell line, censored GI50 values
[14] = HCC1500, HCC1500 cell line, censored GI50 values
[15] = HCC1806, HCC1806 cell line, censored GI50 values
[16] = HCC1954, HCC1954 cell line, censored GI50 values
[17] = HCC2185 cell line, censored GI50 values
[18] = HCC3153 cell line, censored GI50 values
[19] = LY2 cell line, censored GI50 values
[20] = MCF7, MCF7 cell line, censored GI50 values
[21] = MDA-MB-134-VI, MDAMB134VI cell line, censored GI50 values
[22] = MDA-MB-175-VII, MDAMB175VII cell line, censored GI50 values
[23] = MDA-MB-231, MDAMB231 cell line, censored GI50 values
[24] = MDA-MB-361, MDAMB361 cell line, censored GI50 values
[25] = MDA-MB-415, MDAMB415 cell line, censored GI50 values
[26] = MDA-MB-436, MDAMB436 cell line, censored GI50 values
[27] = MDA-MB-453, MDAMB453 cell line, censored GI50 values
[28] = MDA-MB-468, MDAMB468 cell line, censored GI50 values
[29] = SK-BR-3, SKBR3 cell line, censored GI50 values
[30] = SUM52PE, SUM52PE cell line, censored GI50 values
[31] = SUM185PE, SUM185PE cell line, censored GI50 values
[32] = SUM1315MO2, SUM1315MO2 cell line, censored GI50 values
[33] = SUM-159-PT, SUM159PT cell line, censored GI50 values
[34] = UACC-812, UACC812 cell line, censored GI50 values
[35] = UACC-893, UACC893 cell line, censored GI50 values
[36] = ZR-75-1, ZR751 cell line, censored GI50 values
[37] = ZR-75-30, ZR7530 cell line, censored GI50 values
[38] = ZR-75B, ZR75B cell line, censored GI50 values

## COc1cccc2c1C(=O)c1c(O)c3c(c(O)c1C2=O)C[C@@](O)(C(=O)CO)C[C@@H]3O[C@H]1C[C@H](N)[C@H](O)[C@H](C)O1 [Doxorubicin]
[1]
  GI50: 269 nM
[2]
  GI50: 93.3 nM
AU565, cell line AU565
  GI50: 93.3 nM
[3]
  GI50: 309 nM
BT-474, cell line BT474
  GI50: 309 nM
[4]
  GI50: 151 nM
BT-483, cell line BT483
  GI50: 151 nM
[5]
  GI50: 263 nM
CAMA-1, cell line CAMA1
  GI50: 263 nM
[6]
  GI50: 72.4 nM
HCC38, cell line HCC38
  GI50: 72.4 nM
[7]
  GI50: 2290 nM
HCC70, cell line HCC70
  GI50: 2290 nM
[8]
  GI50: 525 nM
HCC202, cell line HCC202
  GI50: 525 nM
[9]
  GI50: 525 nM
HCC1143, cell line HCC1143
  GI50: 525 nM
[10]
  GI50: 132 nM
HCC1187, cell line HCC1187
  GI50: 132 nM
[11]
  GI50: 251 nM
HCC1395, cell line HCC1395
  GI50: 251 nM
[12]
  GI50: 513 nM
HCC1419, cell line HCC1419
  GI50: 513 nM
[13]
  GI50: 1200 nM
HCC1428, cell line HCC1428
  GI50: 1200 nM
[14]
  GI50: 200 nM
HCC1500, cell line HCC1500
  GI50: 200 nM
[15]
  GI50: 162 nM
HCC1806, cell line HCC1806
  GI50: 162 nM
[16]
  GI50: 186 nM
HCC1954, cell line HCC1954
  GI50: 186 nM
[17]
  GI50: 69.2 nM
[18]
  GI50: 355 nM
[19]
  GI50: 195 nM
[20]
  GI50: 501 nM
MCF7, cell line MCF7
  GI50: 501 nM
[21]
  GI50: 1200 nM
MDA-MB-157, MDAMB157 cell line, censored GI50 values
  GI50: 398 nM
MDA-MB-157, cell line MDAMB157
  GI50: 398 nM
[22]
  GI50: 708 nM
[23]
  GI50: 214 nM
MDA-MB-231, cell line MDAMB231
  GI50: 214 nM
[24]
  GI50: 234 nM
MDA-MB-361, cell line MDAMB361
  GI50: 234 nM
[25]
  GI50: 372 nM
MDA-MB-415, cell line MDAMB415
  GI50: 372 nM
[26]
  GI50: 589 nM
MDA-MB-436, cell line MDAMB436
  GI50: 589 nM
[27]
  GI50: 214 nM
MDA-MB-453, cell line MDAMB453
  GI50: 214 nM
[28]
  GI50: 741 nM
MDA-MB-468, cell line MDAMB468
  GI50: 741 nM
[29]
  GI50: 126 nM
SK-BR-3, cell line SKBR3
  GI50: 126 nM
[30]
  GI50: 97.7 nM
SUM52PE, cell line SUM52PE
  GI50: 97.7 nM
[31]
  GI50: 309 nM
SUM185PE, cell line SUM185PE
  GI50: 309 nM
[32]
  GI50: 214 nM
[33]
  GI50: 347 nM
SUM-159-PT, cell line SUM159PT
  GI50: 347 nM
[34]
  GI50: 74.1 nM
UACC-812, cell line UACC812
  GI50: 74.1 nM
[35]
  GI50: 832 nM
UACC-893, cell line UACC893
  GI50: 832 nM
[36]
  GI50: 138 nM
ZR-75-1, cell line ZR751
  GI50: 138 nM
[37]
  GI50: 110 nM
ZR-75-30, cell line ZR7530
  GI50: 110 nM
[38]
  GI50: 251 nM
ZR-75B, cell line ZR75B
  GI50: 251 nM
Cell line 600MPE
  GI50: 269 nM
Cell line HCC2185
  GI50: 69.2 nM
Cell line HCC3153
  GI50: 355 nM
Cell line LY2
  GI50: 195 nM
Cell line MDAMB134V
  GI50: 1200 nM
Cell line MDAMB175V
  GI50: 708 nM
Cell line SUM1315MO
  GI50: 214 nM

## COC1=C2C[C@@H](C)C[C@H](OC)[C@H](O)[C@@H](C)/C=C(\C)[C@H](OC(N)=O)[C@@H](OC)/C=C\C=C(/C)C(=O)NC(=CC1=O)C2=O [Geldanamycin]
[1]
  GI50: 38.9 nM
[2]
  GI50: 51.3 nM
AU565, cell line AU565
  GI50: 51.3 nM
[3]
  GI50: 14.5 nM
BT-474, cell line BT474
  GI50: 14.5 nM
[4]
  GI50: 145 nM
BT-483, cell line BT483
  GI50: 145 nM
BT-549, BT549 cell line, censored GI50 values
  GI50: 5.5 nM
BT-549, cell line BT549
  GI50: 5.5 nM
[5]
  GI50: 79.4 nM
CAMA-1, cell line CAMA1
  GI50: 79.4 nM
[6]
  GI50: 28.8 nM
HCC38, cell line HCC38
  GI50: 28.8 nM
[7]
  GI50: 93.3 nM
HCC70, cell line HCC70
  GI50: 93.3 nM
[8]
  GI50: 1.48 nM
HCC202, cell line HCC202
  GI50: 1.48 nM
[9]
  GI50: 81.3 nM
HCC1143, cell line HCC1143
  GI50: 81.3 nM
[10]
  GI50: 15.8 nM
HCC1187, cell line HCC1187
  GI50: 15.8 nM
[11]
  GI50: 61.7 nM
HCC1395, cell line HCC1395
  GI50: 61.7 nM
[12]
  GI50: 32.4 nM
HCC1419, cell line HCC1419
  GI50: 32.4 nM
[13]
  GI50: 31.6 nM
HCC1428, cell line HCC1428
  GI50: 31.6 nM
[14]
  GI50: 155 nM
HCC1500, cell line HCC1500
  GI50: 155 nM
[15]
  GI50: 75.9 nM
HCC1806, cell line HCC1806
  GI50: 75.9 nM
HCC1937, HCC1937 cell line, censored GI50 values
  GI50: 29.5 nM
HCC1937, cell line HCC1937
  GI50: 29.5 nM
[16]
  GI50: 7.24 nM
HCC1954, cell line HCC1954
  GI50: 7.24 nM
[17]
  GI50: 18.2 nM
[18]
  GI50: 67.6 nM
[19]
  GI50: 100 nM
[20]
  GI50: 240 nM
MCF7, cell line MCF7
  GI50: 240 nM
[21]
  GI50: 20.9 nM
[22]
  GI50: 17.8 nM
[23]
  GI50: 28.8 nM
MDA-MB-231, cell line MDAMB231
  GI50: 28.8 nM
[24]
  GI50: 25.7 nM
MDA-MB-361, cell line MDAMB361
  GI50: 25.7 nM
[25]
  GI50: 57.5 nM
MDA-MB-415, cell line MDAMB415
  GI50: 57.5 nM
[26]
  GI50: 148 nM
MDA-MB-436, cell line MDAMB436
  GI50: 148 nM
[27]
  GI50: 19.5 nM
MDA-MB-453, cell line MDAMB453
  GI50: 19.5 nM
[28]
  GI50: 27.5 nM
MDA-MB-468, cell line MDAMB468
  GI50: 27.5 nM
[29]
  GI50: 16.2 nM
SK-BR-3, cell line SKBR3
  GI50: 16.2 nM
[30]
  GI50: 12 nM
SUM52PE, cell line SUM52PE
  GI50: 12 nM
SUM149PT, SUM149PT cell line, censored GI50 values
  GI50: 6.03 nM
SUM149PT, cell line SUM149PT
  GI50: 6.03 nM
[31]
  GI50: 20 nM
SUM185PE, cell line SUM185PE
  GI50: 20 nM
[32]
  GI50: 38 nM
[33]
  GI50: 6.31 nM
SUM-159-PT, cell line SUM159PT
  GI50: 6.31 nM
[34]
  GI50: 12.3 nM
UACC-812, cell line UACC812
  GI50: 12.3 nM
[35]
  GI50: 11 nM
UACC-893, cell line UACC893
  GI50: 11 nM
[36]
  GI50: 117 nM
ZR-75-1, cell line ZR751
  GI50: 117 nM
[37]
  GI50: 7.08 nM
ZR-75-30, cell line ZR7530
  GI50: 7.08 nM
[38]
  GI50: 93.3 nM
ZR-75B, cell line ZR75B
  GI50: 93.3 nM
Cell line 600MPE
  GI50: 38.9 nM
Cell line HCC2185
  GI50: 18.2 nM
Cell line HCC3153
  GI50: 67.6 nM
Cell line LY2
  GI50: 100 nM
Cell line MDAMB134V
  GI50: 20.9 nM
Cell line MDAMB175V
  GI50: 17.8 nM
Cell line SUM1315MO
  GI50: 38 nM
